From ChEMBL document CHEMBL1201862, “PubChem BioAssay data set” (2004)
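Protocol summary: plate cells (96-well), add compound at 5 concentrations, incubate 48 h, interpolate endpoints linearly. GI50 marks 50% less growth.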 Activity calls are given as the source filed them. Rule as the data show it: active = GI50 up to about 1.1 µM and inactive = higher.

How the values were obtained:
Assay in all cases: NCI-60 cell line screen, 48 h
786-0 = tested on: 786-0
A498 = tested on: A498
A549 = tested on: A549
ACHN = tested on: ACHN
BT-549 = tested on: BT-549
CAKI-1 = tested on: CAKI-1
CCRF-CEM = tested on: CCRF-CEM
COLO 205 = tested on: COLO 205
DU-145 = tested on: DU-145
EKVX = tested on: EKVX
HCC 2998 = tested on: HCC 2998
HCT-116 = tested on: HCT-116
HCT-15 = tested on: HCT-15
HL-60 = tested on: HL-60
HOP-62 = tested on: HOP-62
HOP-92 = tested on: HOP-92
HT-29 = tested on: HT-29
Hs-578T = tested on: Hs-578T
IGROV-1 = tested on: IGROV-1
K562 = tested on: K562
KM12 = tested on: KM12
LOX IMVI = tested on: LOX IMVI
M14 = tested on: M14
MCF7 = tested on: MCF7
MDA-MB-231 = tested on: MDA-MB-231
MDA-MB-435 = tested on: MDA-MB-435
MDA-N = tested on: MDA-N
MOLT-4 = tested on: MOLT-4
Malme-3M = tested on: Malme-3M
NCI-H226 = tested on: NCI-H226
NCI-H23 = tested on: NCI-H23
NCI-H460 = tested on: NCI-H460
NCI-H522 = tested on: NCI-H522
NCI/ADR-RES = tested on: NCI/ADR-RES
OVCAR-3 = tested on: OVCAR-3
OVCAR-4 = tested on: OVCAR-4
OVCAR-5 = tested on: OVCAR-5
OVCAR-8 = tested on: OVCAR-8
PC-3 = tested on: PC-3
RPMI-8226 = tested on: RPMI-8226
RXF 393 = tested on: RXF 393
SF-268 = tested on: SF-268
SF-295 = tested on: SF-295
SF-539 = tested on: SF-539
SK-MEL-28 = tested on: SK-MEL-28
SK-MEL-2 = tested on: SK-MEL-2
SK-MEL-5 = tested on: SK-MEL-5
SK-OV-3 = tested on: SK-OV-3
SN12C = tested on: SN12C
SNB-19 = tested on: SNB-19
SNB-75 = tested on: SNB-75
SR = tested on: SR
SW-620 = tested on: SW-620
T47D = tested on: T47D
TK-10 = tested on: TK-10
U-251 = tested on: U-251
UACC-257 = tested on: UACC-257
UACC-62 = tested on: UACC-62
UO-31 = tested on: UO-31

SMILES: COc1c2ccccc2c(OC)c2nc(C)ccc12
- GI50 (786-0): 51.9 µM (inactive)
- GI50 (A498): > 100 µM (inactive)
- GI50 (A549): > 100 µM (inactive)
- GI50 (ACHN): > 100 µM (inactive)
- GI50 (BT-549): > 79.1 µM (inactive)
- GI50 (CAKI-1): > 94 µM (inactive)
- GI50 (CCRF-CEM): 23.7 µM (inactive)
- GI50 (COLO 205): 56.1 µM (inactive)
- GI50 (DU-145): > 100 µM (inactive)
- GI50 (EKVX): > 100 µM (inactive)
- GI50 (HCC 2998): > 100 µM (inactive)
- GI50 (HCT-116): > 80.2 µM (inactive)
- GI50 (HCT-15): 41.3 µM
- GI50 (HL-60): 26.8 µM (inactive)
- GI50 (HOP-62): > 100 µM (inactive)
- GI50 (HOP-92): > 100 µM (inactive)
- GI50 (HT-29): 49.3 µM (inactive)
- GI50 (Hs-578T): > 100 µM (inactive)
- GI50 (IGROV-1): > 100 µM (inactive)
- GI50 (K562): 30.6 µM (inactive)
- GI50 (KM12): > 100 µM (inactive)
- GI50 (LOX IMVI): 23.7 µM (inactive)
- GI50 (M14): > 100 µM (inactive)
- GI50 (MCF7): > 74 µM (inactive)
- GI50 (MDA-MB-231): > 100 µM (inactive)
- GI50 (MDA-MB-435): > 100 µM (inactive)
- GI50 (MDA-N): > 100 µM (inactive)
- GI50 (MOLT-4): 40.6 µM (inactive)
- GI50 (Malme-3M): > 93.5 µM (inactive)
- GI50 (NCI-H226): > 100 µM (inactive)
- GI50 (NCI-H23): > 100 µM (inactive)
- GI50 (NCI-H460): 39.7 µM (inactive)
- GI50 (NCI-H522): 69.7 µM (inactive)
- GI50 (NCI/ADR-RES): > 100 µM (inactive)
- GI50 (OVCAR-3): > 100 µM (inactive)
- GI50 (OVCAR-4): > 100 µM (inactive)
- GI50 (OVCAR-5): > 100 µM (inactive)
- GI50 (OVCAR-8): > 100 µM (inactive)
- GI50 (PC-3): > 91 µM (inactive)
- GI50 (RPMI-8226): 81.8 µM (inactive)
- GI50 (RXF 393): > 100 µM (inactive)
- GI50 (SF-268): > 100 µM (inactive)
- GI50 (SF-295): > 100 µM (inactive)
- GI50 (SF-539): > 100 µM (inactive)
- GI50 (SK-MEL-28): > 100 µM (inactive)
- GI50 (SK-MEL-2): > 100 µM (inactive)
- GI50 (SK-MEL-5): 71.4 µM (inactive)
- GI50 (SK-OV-3): > 100 µM (inactive)
- GI50 (SN12C): > 100 µM (inactive)
- GI50 (SNB-19): > 100 µM (inactive)
- GI50 (SNB-75): > 100 µM (inactive)
- GI50 (SR): 30.8 µM (inactive)
- GI50 (SW-620): > 100 µM (inactive)
- GI50 (T47D): > 100 µM (inactive)
- GI50 (TK-10): > 100 µM (inactive)
- GI50 (U-251): 42.5 µM (inactive)
- GI50 (UACC-257): > 77.3 µM (inactive)
- GI50 (UACC-62): > 81.8 µM (inactive)
- GI50 (UO-31): > 100 µM (inactive)

SMILES: COC(=O)CC1C(C)(C)C(=O)C2CC3=C4CC(=O)OC(c5ccoc5)C4(C)CCC3C1(C)C2=O (configuration not stated)
- GI50 (786-0): > 100 µM (inactive)
- GI50 (A498): > 100 µM (inactive)
- GI50 (A549): > 100 µM (inactive)
- GI50 (ACHN): > 100 µM (inactive)
- GI50 (BT-549): > 100 µM (inactive)
- GI50 (CAKI-1): > 100 µM (inactive)
- GI50 (CCRF-CEM): > 100 µM (inactive)
- GI50 (COLO 205): > 100 µM (inactive)
- GI50 (DU-145): > 100 µM (inactive)
- GI50 (EKVX): > 100 µM (inactive)
- GI50 (HCC 2998): > 100 µM (inactive)
- GI50 (HCT-116): > 100 µM (inactive)
- GI50 (HCT-15): > 100 µM
- GI50 (HL-60): 44.4 µM (inactive)
- GI50 (HOP-62): > 100 µM (inactive)
- GI50 (HOP-92): > 100 µM (inactive)
- GI50 (HT-29): > 100 µM (inactive)
- GI50 (Hs-578T): > 100 µM (inactive)
- GI50 (IGROV-1): > 100 µM (inactive)
- GI50 (K562): > 100 µM (inactive)
- GI50 (KM12): > 100 µM (inactive)
- GI50 (LOX IMVI): > 100 µM (inactive)
- GI50 (M14): > 100 µM (inactive)
- GI50 (MCF7): > 100 µM (inactive)
- GI50 (MDA-MB-231): > 100 µM (inactive)
- GI50 (MDA-MB-435): > 100 µM (inactive)
- GI50 (MDA-N): > 100 µM (inactive)
- GI50 (MOLT-4): > 100 µM (inactive)
- GI50 (Malme-3M): > 100 µM (inactive)
- GI50 (NCI-H226): > 100 µM (inactive)
- GI50 (NCI-H23): > 100 µM (inactive)
- GI50 (NCI-H460): > 100 µM (inactive)
- GI50 (NCI-H522): > 100 µM (inactive)
- GI50 (NCI/ADR-RES): > 100 µM (inactive)
- GI50 (OVCAR-3): > 100 µM (inactive)
- GI50 (OVCAR-4): > 100 µM (inactive)
- GI50 (OVCAR-5): > 100 µM (inactive)
- GI50 (OVCAR-8): > 100 µM (inactive)
- GI50 (PC-3): > 100 µM (inactive)
- GI50 (RPMI-8226): > 100 µM (inactive)
- GI50 (RXF 393): > 100 µM (inactive)
- GI50 (SF-268): > 100 µM (inactive)
- GI50 (SF-295): > 100 µM (inactive)
- GI50 (SF-539): > 100 µM (inactive)
- GI50 (SK-MEL-28): > 100 µM (inactive)
- GI50 (SK-MEL-2): > 100 µM (inactive)
- GI50 (SK-MEL-5): > 100 µM (inactive)
- GI50 (SK-OV-3): > 100 µM (inactive)
- GI50 (SN12C): > 100 µM (inactive)
- GI50 (SNB-19): > 100 µM (inactive)
- GI50 (SNB-75): > 100 µM (inactive)
- GI50 (SR): > 100 µM (inactive)
- GI50 (SW-620): > 100 µM (inactive)
- GI50 (T47D): > 100 µM (inactive)
- GI50 (TK-10): > 100 µM (inactive)
- GI50 (U-251): > 100 µM (inactive)
- GI50 (UACC-257): > 100 µM (inactive)
- GI50 (UACC-62): > 100 µM (inactive)
